Measured values published in ChEMBL document CHEMBL1667751, “Synthesis and antimicrobial activity of highly functionalised novel β-lactam grafted spiropyrrolidines and pyrrolizidines” (2011).

Columns and labels:
[1] = test system: Staphylococcus aureus; experiment: Antibacterial activity against Staphylococcus aureus at 100 ug/ml after 24 hrs agar diffusion method; format: functional; details: read-out: DIZ
[2] = test system: Salmonella typhi; experiment: Antibacterial activity against Salmonella typhi at 75 ug/ml after 24 hrs agar diffusion method; format: functional, Salmonella enterica subsp. enterica serovar Typhi; details: Salmonella enterica, read-out: DIZ
[3] = test system: Proteus mirabilis; experiment: Antibacterial activity against Proteus mirabilis at 25 ug/ml after 24 hrs agar diffusion method; format: functional; details: read-out: DIZ
[4] = test system: Staphylococcus aureus; experiment: Antibacterial activity against Staphylococcus aureus at 25 ug/ml after 24 hrs agar diffusion method; format: functional; details: read-out: DIZ
[5] = test system: Proteus vulgaris; experiment: Antibacterial activity against Proteus vulgaris at 50 ug/ml after 24 hrs agar diffusion method; format: functional; details: read-out: DIZ
[6] = test system: Salmonella typhi; experiment: Antibacterial activity against Salmonella typhi at 25 ug/ml after 24 hrs agar diffusion method; format: functional, Salmonella enterica subsp. enterica serovar Typhi; details: Salmonella enterica, read-out: DIZ
[7] = test system: Proteus vulgaris; experiment: Antibacterial activity against Proteus vulgaris at 25 ug/ml after 24 hrs agar diffusion method; format: functional; details: read-out: DIZ
[8] = test system: Staphylococcus aureus; experiment: Antibacterial activity against Staphylococcus aureus at 50 ug/ml after 24 hrs agar diffusion method; format: functional; details: read-out: DIZ
[9] = test system: Proteus mirabilis; experiment: Antibacterial activity against Proteus mirabilis at 100 ug/ml after 24 hrs agar diffusion method; format: functional; details: read-out: DIZ
[10] = test system: Proteus vulgaris; experiment: Antibacterial activity against Proteus vulgaris at 100 ug/ml after 24 hrs agar diffusion method; format: functional; details: read-out: DIZ
[11] = test system: Salmonella typhi; experiment: Antibacterial activity against Salmonella typhi at 50 ug/ml after 24 hrs agar diffusion method; format: functional, Salmonella enterica subsp. enterica serovar Typhi; details: Salmonella enterica, read-out: DIZ
[12] = test system: Proteus mirabilis; experiment: Antibacterial activity against Proteus mirabilis at 75 ug/ml after 24 hrs agar diffusion method; format: functional; details: read-out: DIZ
[13] = test system: Staphylococcus aureus; experiment: Antibacterial activity against Staphylococcus aureus at 75 ug/ml after 24 hrs agar diffusion method; format: functional; details: read-out: DIZ
[14] = test system: Proteus mirabilis; experiment: Antibacterial activity against Proteus mirabilis at 50 ug/ml after 24 hrs agar diffusion method; format: functional; details: read-out: DIZ
[15] = test system: Salmonella typhi; experiment: Antibacterial activity against Salmonella typhi at 100 ug/ml after 24 hrs agar diffusion method; format: functional, Salmonella enterica subsp. enterica serovar Typhi; details: Salmonella enterica, read-out: DIZ
[16] = test system: Proteus vulgaris; experiment: Antibacterial activity against Proteus vulgaris at 75 ug/ml after 24 hrs agar diffusion method; format: functional; details: read-out: DIZ

Row | Compound | zone of inhibition at 100 µg/mL [1] [mm] | zone of inhibition at 75 µg/mL [2] [mm] | zone of inhibition at 25 µg/mL [3] [mm] | zone of inhibition at 25 µg/mL [4] [mm] | zone of inhibition at 50 µg/mL [5] [mm] | zone of inhibition at 25 µg/mL [6] [mm] | zone of inhibition at 25 µg/mL [7] [mm] | zone of inhibition at 50 µg/mL [8] [mm] | zone of inhibition at 100 µg/mL [9] [mm] | zone of inhibition at 100 µg/mL [10] [mm] | zone of inhibition at 50 µg/mL [11] [mm] | zone of inhibition at 75 µg/mL [12] [mm] | zone of inhibition at 75 µg/mL [13] [mm] | zone of inhibition at 50 µg/mL [14] [mm] | zone of inhibition at 100 µg/mL [15] [mm] | zone of inhibition at 75 µg/mL [16] [mm]
1 | CCOC(=O)[C@@H]1[C@@H]([C@H]2[C@@H](c3ccccc3)C(=O)N2c2ccc(OC)cc2)CN(C)[C@]12C(=O)Nc1ccccc12 | 27 | 21 | 11 | 14 | 14 | 12 | 11 | 18 | 21 | 20 | 15 | 18 | 23 | 14 | 29 | 16
2 | CCOC(=O)[C@@H]1[C@@H]([C@H]2[C@@H](Oc3ccccc3)C(=O)N2c2ccc(OC)cc2)C2CCCN2[C@]12C(=O)Nc1ccccc12 (stereo partly specified) | 34 | 21 | 12 | 14 | 20 | 13 | 19 | 18 | 36 | > 40 | 16 | 24 | 22 | 16 | 31 | 27
3 | CCOC(=O)[C@@H]1[C@@H]([C@H]2[C@@H](Oc3ccccc3)C(=O)N2c2ccc(OC)cc2)CN(C)[C@]12C(=O)Nc1ccccc12 | 26 | 20 | 12 | 14 | 14 | 11 | 11 | 19 | 32 | 21 | 14 | 22 | 21 | 13 | 28 | 18
4 | CCOC(=O)[C@@H]1[C@@H]([C@H]2[C@@H](c3ccccc3)C(=O)N2c2ccc(OC)cc2)C2CCCN2[C@]12C(=O)Nc1ccccc12 (stereo partly specified) | 31 | 18 | 14 | 9 | 21 | 11 | 13 | 16 | 32 | > 40 | 14 | 21 | 21 | 18 | 26 | 25
5 | CCOC(=O)[C@@H]1[C@@H]([C@H]2[C@@H](c3ccccc3)C(=O)N2c2ccc(OC)cc2)C2CCCN2[C@@]12C(=O)c1cccc3cccc2c13 (stereo partly specified) | 21 |  | 9 | 9 | 12 |  |  | 14 | 18 | 20 |  | 14 | 19 | 11 |  | 17
6 | CCOC(=O)[C@@H]1[C@@H]([C@H]2[C@@H](Oc3ccccc3)C(=O)N2c2ccc(OC)cc2)C2CCCN2C12C(=O)c1ccccc1C2=O (stereo partly specified) | 24 | 17 | 8 | 9 | 18 | 11 | 9 | 14 | 22 | 26 | 15 | 18 | 18 | 15 | 23 | 23
